Assay results: patent US20220257595A1, “MACITENTAN FOR USE IN TREATING PORTOPULMONARY HYPERTENSION” (ACTELION PHARMACEUTICALS LTD, priority 2019, published 2022)

Legend:
Type in all cases: in vivo, human
[1] = test system: patients with PoPH; assay: Post-hoc: MELD exception eligibility (mPAP/PVR)
Procedure: (§1) Post-Hoc, Exploratory Criteria: • Proportion of patients with NT-proBNP decrease from above 300 ng/L to below this threshold • Odds ratio for improvement to a more favorable liver transplant perioperative risk category • Odds ratio for becoming eligible for the MELD exception • Odds ratio for improvement to a more favorable waitlist mortality risk category
(§2) Risk categories related to liver transplant (transplant perioperative risk classification, MELD exception eligibility and waitlist mortality risk) were analyzed descriptively by treatment group using shift tables from baseline to Week 12 with categories as defined in Example 1.
(§3) LT perioperative risk classification, MELD exception eligibility, and waitlist mortality analyses were performed after the database lock and SDTMs delivery for the Double-Blind period. Number (%) of patients in following categories were summarized and presented in shift tables. The estimated odds ratio for risk improvement and corresponding 95% confidence intervals were obtained from an exact logistic regression (macitentan vs placebo) with factors for treatment and risk category at baseline.
In general, liver grafts are attributed in priority to patients who need a liver transplant the most urgently. This assessment lies mostly on the Model for End-stage Liver Disease (MELD) score: the higher the score, the higher the patient's priority on the waiting list. In PoPH, by the time MELD score is high enough to obtain a liver graft, the hemodynamic state is generally too severely impaired for the procedure. In the US, a PoPH MELD exception rule (MELD exception) is in place to facilitate access to a liver graft to patients with PoPH who attain mPAP ≤[…] and PVR ≤400 dyn·sec·cm^−5 with PAH treatment. Patients are priority-ranked on the waitlist with a higher MELD score than their actual score. This allows obtaining a liver graft at a time when liver impairment is moderate, before cardiopulmonary impairment becomes a contraindication to transplant.

[2] = test system: patients with PoPH; assay: Post-hoc: liver transplant waitlist mortality risk (PVR categories)
Procedure: as §1, §2, §3
The outcomes of PoPH patients who were granted MELD exception in the US were analyzed. […] Age, initial MELD score and initial PVR were significant predictors of waitlist mortality, although their accuracy was limited. The results were illustrated by defining 4 groups depending on their PVR and MELD score: high PVR (PVR>450 dyn·sec·cm^−5), low PVR (PVR ≤450 dyn·sec·cm^−5), high MELD (MELD >12) or low MELD (MELD ≤12).

[3] = test system: patients with PoPH; assay: PORTICO: Borg dyspnea index after 6MWT; details: DB period
Procedure: (iv) 6-minute walk test, including Borg dyspnea index: The 6MWT was performed at Screening, Baseline (Visit 2/Randomization), and then every Visit until EOT-DB or EOT-OL, whichever came last. It is a non-encouraged test that measures the distance walked by the patient in six minutes. It is important that for each individual patient the 6MWT was conducted under the same conditions throughout the study (e.g., same location, same tester, same time of day, with or without nasal oxygen therapy and where applicable with same flow rate as Baseline). The Borg dyspnea index was evaluated after each 6MWT. It rates dyspnea on a scale from 0 to 10.
Double-blind treatment period: Changes from baseline to Week 12 in HVPG/HVPG (central review) and Borg dyspnea index (related to the DB treatment period) are summarized by treatment group in the FAS using descriptive statistics.

[4] = test system: patients with PoPH; assay: Post-hoc: liver transplant perioperative risk classification (mPAP categories); details: for LT perioperative risk classification: Week 12 High risk (mPAP => 45 mm Hg): 10 mg, N = 43
Procedure: as §1, §2, §3
The presence of moderate to severe pulmonary hypertension in patients with liver disease increases the risk of graft dysfunction and cardiopulmonary-related mortality after orthotopic liver transplant. According to the International Liver Transplant Society (ILTS) Practice Guidelines, liver transplant is conditional to appropriate hemodynamics due to the risk of cardiopulmonary-related mortality after liver transplant: • mPAP ≥45 mmHg is an absolute contraindication to liver transplant (high risk) as it is associated with 100% cardiopulmonary mortality • mPAP ≥35 mmHg and <45 mmHg, with increased PVR is associated with increased mortality (intermediate risk) of about 50%
mPAP <35 mmHg is associated with a low risk for liver transplant • LT perioperative risk classification

[5] = test system: patients with PoPH; assay: PORTICO: hepatic venous pressure gradient by hepatic vein catheterization; details: macitentan group n=15, no TIPS
Procedure: (ii) Hemodynamic measurements—hepatic vein catheterization: HVPG, the difference between portal pressure and hepatic pressure, was measured by HVC at Baseline (Visit 1/Screening) and Week 12, or at permanent discontinuation of DB study treatment if prior to Week 12 (at the investigator's discretion). Where possible, HVPG was measured at the same time as RHC. The second measurement during the study was required to be performed within 1 week prior to EOT-DB if it was not possible to perform the HVC on the same day as the RHC. HVPG measurements were performed after at least 4 hours of fasting, at rest, in the supine position, under local anesthesia and mild sedation. A catheter introducer was placed into the right jugular vein (or femoral) using the Seldinger technique. It was used to advance a balloon-tipped catheter into the main right hepatic vein for repeated measurements of wedged (occluded) and free hepatic venous pressures. Intravascular pressures were measured using highly sensitive pressure transducers, calibrated before each measurement. HVPG was calculated as the difference between wedged and free hepatic venous pressures. […] The mean of these two measurements was considered final. […]

[6] = Week 12, exact logistic regression
[7] = after 12 weeks, FAS no imputation, 18 patients

SMILES: CCCNS(=O)(=O)Nc1ncnc(OCCOc2ncc(Br)cn2)c1-c1ccc(Br)cc1 [macitentan, N-[5-(4-Bromophenyl)-6-[2-[(5-bromo-2-pyrimidinyl)oxy]ethoxy]-4-pyrimidinyl]-N′-propylsulfamide]
- Liver transplant (MELD exception) eligibility based on mPAP/PVR: Week 12 Category 2 (mPAP ≤ 35 and PVR ≤ 400 dyn · sec/cm^5 = NO) ([1]; Baseline Category 1 (n = 1), Full analysis set, 10 mg, N = 43): 0 n (%)
- Liver transplant (MELD exception) eligibility based on mPAP/PVR: Week 12 Category 1 (mPAP ≤ 35 and PVR ≤ 400 dyn · sec/cm^5 = YES) ([1]; Total, Full analysis set, 10 mg, N = 43): 9 n (%)
- Odds of becoming eligible for the MELD exception, macitentan vs placebo [1, 6]: 4.51 times
- Patients not meeting MELD exception criteria at baseline who met them (mPAP ≤35 mmHg and PVR ≤400 dyn·sec·cm^−5) ([1]; after 12 weeks, FAS no imputation, 8 patients): 18.6%
- Liver transplant eligibility: Between-treatment odds ratio for improvement, OR ([1]; macitentan vs placebo, exact logistic regression, 95% CI 0.822, 46.462, p-value 0.0958): 4.512
- PVR risk categories (waitlist mortality): Week 12 Category 2 (PVR > 450 dyn · sec/cm^5) ([2]; Baseline Category 2 (n = 30), Full analysis set, 10 mg, N = 43): 9 n (%)
- Odds of changing to the low waitlist mortality risk group, macitentan vs placebo [2, 6]: 10.48 times
- Patients moving from waitlist high-risk group (PVR >450 dyn·s·cm^−5) to low-risk group [2, 7]: 41.9%
- PVR risk categories: Between-treatment odds ratio for improvement, OR ([2]; macitentan vs placebo, exact logistic regression, 95% CI 2.381, 66.810, p-value 0.0005): 10.479
- Change in Borg dyspnea score over time [3]: no change
- LT perioperative risk classification: Week 12 High risk (mPAP => 45 mm Hg) ([4]; Baseline Intermediate risk (n = 16)): 0 n (%)
- LT perioperative risk classification: Week 12 High risk (mPAP => 45 mm Hg) ([4]; Baseline Low risk (n = 2)): 0 n (%)
- Odds to change to a more favorable LT perioperative risk category, macitentan vs placebo [4, 6]: 3.73 times
- Patients improving to a more favorable LT perioperative risk category [4, 7]: 41.9%
- LT perioperative risk: Between-treatment odds ratio for improvement, OR ([4]; macitentan vs placebo, exact logistic regression, 95% CI 1.175, 13.401, p-value 0.0224): 3.732
- HVPG (central review) mean change from baseline at Week 12 [5]: −0.5 mmHg
